Legend:
[1] = 101.33 kPa, Liquid; for thermal conductivity: transient hot wire; for mass density: Vibrating tube method; for viscosity: Cone and plate viscometry; for electrical conductivity: Direct current cell with electrodes
[2] = molar heat capacity at constant pressure; conditions: 101.33 kPa, Liquid, Small sample (50 mg) DSC
[3] = wn = mass fraction of the nth substance listed; conditions: 101 kPa, Liquid, w2 = 0.1583; for mass density: Vibrating tube method; for viscosity: Cone and plate viscometry; for thermal conductivity: transient hot wire; for electrical conductivity: Direct current cell with electrodes
[4] = molar heat capacity at constant pressure; wn = mass fraction of the nth substance listed; conditions: 101 kPa, Liquid, Small sample (50 mg) DSC, w2 = 0.1583

CC(=O)[O-].CCCCCCCCCCCCCC[P+](CCCCCC)(CCCCCC)CCCCCC [trihexyl(tetradecyl)phosphonium acetate]
Conditions	electrical conductivity [S/m]	mass density [kg/m3]	molar heat capacity at constant pressure [J/K/mol]	thermal conductivity [W/m/K]	viscosity [mPa·s]
[1], 278.37 K	–	–	–	0.1629	–
[1], 288.1 K	–	–	–	0.1612	–
[1], 293.15 K	–	897.6	–	–	–
[1], 293.2 K	–	–	–	–	254
[1], 298.15 K	–	894.6	–	–	–
[1], 298.16 K	–	–	–	0.1602	–
[1], 298.2 K	–	–	–	–	196.2
[1], 299.6 K	0.00554	–	–	–	–
[1], 303.15 K	–	891.5	–	–	–
[1], 303.2 K	–	–	–	–	151.2
[1], 303.9 K	0.00767	–	–	–	–
[1], 307.92 K	–	–	–	0.1598	–
[1], 308.2 K	–	–	–	–	117.4
[1], 308.7 K	0.0101	–	–	–	–
[1], 313.15 K	–	885.2	–	–	–
[1], 313.2 K	–	–	–	–	92.23
[1], 313.7 K	0.0129	–	–	–	–
[1], 317.98 K	–	–	–	0.1582	–
[1], 318.2 K	–	–	–	–	73.75
[1], 318.8 K	0.0167	–	–	–	–
[1], 323.15 K	–	879	–	–	–
[1], 323.2 K	–	–	–	–	59.32
[1], 323.8 K	0.0209	–	–	–	–
[1], 328.08 K	–	–	–	0.1565	–
[1], 328.2 K	–	–	–	–	48.52
[1], 328.8 K	0.026	–	–	–	–
[1], 333.15 K	–	872.9	–	–	–
[1], 333.2 K	–	–	–	–	40.22
[1], 333.9 K	0.0317	–	–	–	–
[1], 338 K	–	–	–	0.1558	–
[1], 338.2 K	–	–	–	–	33.78
[1], 338.9 K	0.0383	–	–	–	–
[1], 343.15 K	–	866.7	–	–	–
[1], 343.2 K	–	–	–	–	28.55
[1], 343.9 K	0.0458	–	–	–	–
[1], 348.06 K	–	–	–	0.1551	–
[1], 348.2 K	–	–	–	–	24.46
[1], 349 K	0.0542	–	–	–	–
[1], 353.15 K	–	860.7	–	–	–
[1], 353.2 K	–	–	–	–	20.95
[1], 357.1 K	–	–	–	0.1541	–
[1], 358.2 K	–	–	–	–	18.13
[1], 363.15 K	–	854.7	–	–	–
[1], 363.2 K	–	–	–	–	15.71
[1], 368.2 K	–	–	–	–	13.72
[2], 293.15 K	–	–	1095.6	–	–
[2], 298.15 K	–	–	1097.7	–	–
[2], 303.15 K	–	–	1101.5	–	–
[2], 308.15 K	–	–	1105.9	–	–
[2], 313.15 K	–	–	1111.3	–	–
[2], 318.15 K	–	–	1116.7	–	–
[2], 323.15 K	–	–	1122.7	–	–
[2], 328.15 K	–	–	1128.1	–	–
[2], 333.15 K	–	–	1134.1	–	–
[2], 338.15 K	–	–	1140.6	–	–
[2], 343.15 K	–	–	1147.1	–	–
[2], 348.15 K	–	–	1154.2	–	–
[2], 353.15 K	–	–	1158.5	–	–
[2], 358.15 K	–	–	1166.7	–	–
[2], 363.15 K	–	–	1173.2	–	–

CCCCCC(=O)[O-].CCCCCCCCCCCCCC[P+](CCCCCC)(CCCCCC)CCCCCC [trihexyl(tetradecyl)phosphonium hexanoate] + O
Conditions	electrical conductivity [S/m]	mass density [kg/m3]	molar heat capacity at constant pressure [J/K/mol]	thermal conductivity [W/m/K]	viscosity [mPa·s]
[3], 298.15 K	–	905	–	–	–
[3], 298.2 K	–	–	–	–	79.44
[3], 298.75 K	–	–	–	0.1871	–
[3], 299.4 K	0.0753	–	–	–	–
[3], 303.15 K	–	901.7	–	–	–
[3], 303.2 K	–	–	–	–	63.83
[3], 304 K	0.0926	–	–	–	–
[3], 307.76 K	–	–	–	0.1858	–
[3], 308.1 K	0.11	–	–	–	–
[3], 308.2 K	–	–	–	–	51.41
[3], 313.15 K	–	894.6	–	–	–
[3], 313.2 K	–	–	–	–	41.45
[3], 313.9 K	0.132	–	–	–	–
[3], 317.72 K	–	–	–	0.1838	–
[3], 318.2 K	–	–	–	–	34.56
[3], 318.4 K	0.16	–	–	–	–
[3], 323.15 K	–	888	–	–	–
[3], 323.2 K	–	–	–	–	29.8
[3], 323.6 K	0.184	–	–	–	–
[3], 327.36 K	–	–	–	0.1824	–
[3], 328 K	0.217	–	–	–	–
[3], 328.2 K	–	–	–	–	24.98
[3], 333.15 K	–	880.5	–	–	–
[3], 333.2 K	–	–	–	–	20.36
[3], 333.6 K	0.252	–	–	–	–
[3], 337.88 K	–	–	–	0.1814	–
[3], 338.2 K	–	–	–	–	17.31
[3], 338.9 K	0.297	–	–	–	–
[3], 343 K	0.331	–	–	–	–
[3], 343.15 K	–	874.2	–	–	–
[3], 343.2 K	–	–	–	–	15.85
[3], 347.85 K	–	–	–	0.1791	–
[3], 348.2 K	–	–	–	–	13.19
[3], 349.3 K	0.391	–	–	–	–
[3], 353.15 K	–	867.8	–	–	–
[3], 353.2 K	–	–	–	–	11.18
[3], 358.05 K	–	–	–	0.1774	–
[3], 358.2 K	–	–	–	–	10.4
[3], 363.15 K	–	861	–	–	–
[3], 363.2 K	–	–	–	–	9.406
[3], 368.2 K	–	–	–	–	8.038
[4], 298.15 K	–	–	318.37	–	–
[4], 303.15 K	–	–	320.43	–	–
[4], 308.15 K	–	–	323.18	–	–
[4], 313.15 K	–	–	325.93	–	–
[4], 318.15 K	–	–	328.97	–	–
[4], 323.15 K	–	–	332.11	–	–
[4], 328.15 K	–	–	335.25	–	–
[4], 333.15 K	–	–	339.17	–	–
[4], 338.15 K	–	–	343.3	–	–
[4], 343.15 K	–	–	347.22	–	–
[4], 348.15 K	–	–	351.44	–	–
[4], 353.15 K	–	–	353.31	–	–
[4], 358.15 K	–	–	359	–	–
[4], 363.15 K	–	–	365.08	–	–

CCCCCCCCCC(=O)[O-].CCCCCCCCCCCCCC[P+](CCCCCC)(CCCCCC)CCCCCC [trihexyltetradecylphosphonium decanoate]
Conditions	electrical conductivity [S/m]	mass density [kg/m3]	molar heat capacity at constant pressure [J/K/mol]	thermal conductivity [W/m/K]	viscosity [mPa·s]
[1], 278.09 K	–	–	–	0.1601	–
[1], 288 K	–	–	–	0.1591	–
[1], 293.15 K	–	880.4	–	–	–
[1], 293.2 K	–	–	–	–	546.3
[1], 297.79 K	–	–	–	0.1571	–
[1], 298.15 K	–	877.3	–	–	–
[1], 298.2 K	–	–	–	–	409.8
[1], 298.8 K	0.00174	–	–	–	–
[1], 303.15 K	–	874.6	–	–	–
[1], 303.2 K	–	–	–	–	314.5
[1], 303.8 K	0.00239	–	–	–	–
[1], 308 K	0.00297	–	–	–	–
[1], 308.16 K	–	–	–	0.1545	–
[1], 308.2 K	–	–	–	–	242.5
[1], 313.15 K	–	868.1	–	–	–
[1], 313.2 K	–	–	–	–	189.8
[1], 313.8 K	0.00395	–	–	–	–
[1], 318.13 K	–	–	–	0.1542	–
[1], 318.2 K	–	–	–	–	151.3
[1], 319.6 K	0.00506	–	–	–	–
[1], 323.15 K	–	862	–	–	–
[1], 323.2 K	0.00631	–	–	–	121.8
[1], 326.82 K	–	–	–	0.1535	–
[1], 328.2 K	0.00763	–	–	–	99.78
[1], 333.15 K	–	855.7	–	–	–
[1], 333.2 K	–	–	–	–	82.68
[1], 333.4 K	0.00949	–	–	–	–
[1], 338.2 K	–	–	–	–	68.76
[1], 338.3 K	0.0118	–	–	–	–
[1], 338.5 K	–	–	–	0.1515	–
[1], 343.15 K	–	849.7	–	–	–
[1], 343.2 K	–	–	–	–	58.07
[1], 343.5 K	0.0137	–	–	–	–
[1], 347.3 K	–	–	–	0.1502	–
[1], 348.2 K	–	–	–	–	49.28
[1], 349.7 K	0.0171	–	–	–	–
[1], 353.15 K	–	843.3	–	–	–
[1], 353.2 K	–	–	–	–	42.21
[1], 358.2 K	–	–	–	–	36.41
[1], 358.21 K	–	–	–	0.1493	–
[1], 363.15 K	–	837.4	–	–	–
[1], 363.2 K	–	–	–	–	31.71
[1], 368.2 K	–	–	–	–	27.59
[2], 293.15 K	–	–	1181.2	–	–
[2], 298.15 K	–	–	1191.7	–	–
[2], 303.15 K	–	–	1199.5	–	–
[2], 308.15 K	–	–	1209.3	–	–
[2], 313.15 K	–	–	1217.2	–	–
[2], 318.15 K	–	–	1221.8	–	–
[2], 323.15 K	–	–	1230.3	–	–
[2], 328.15 K	–	–	1238.2	–	–
[2], 333.15 K	–	–	1246	–	–
[2], 338.15 K	–	–	1250.6	–	–
[2], 343.15 K	–	–	1264.4	–	–
[2], 348.15 K	–	–	1269.6	–	–
[2], 353.15 K	–	–	1278.8	–	–
[2], 358.15 K	–	–	1285.3	–	–
[2], 363.15 K	–	–	1296.5	–	–
